Experimental data published in the NIST ThermoML archive (doi:10.1021/je060179e).

Assay: xn = mol fraction of the nth substance listed
Settings: for mass density: 101 kPa, Liquid

CCCCCCCCO [octan-1-ol] + CCCCCCC
Settings | mass density [kg/m3] | surface tension liquid-gas [mN/m]
288.15 K, x2 = 0.0514 | 822.18 | –
288.15 K, x2 = 0.0516 | – | 26.75
288.15 K, x2 = 0.0995 | – | 26.18
288.15 K, x2 = 0.1001 | 816.02 | –
288.15 K, x2 = 0.1845 | – | 25.05
288.15 K, x2 = 0.2015 | 802.93 | –
288.15 K, x2 = 0.3082 | 788.6 | –
288.15 K, x2 = 0.3346 | – | 23.74
288.15 K, x2 = 0.4054 | 775.17 | –
288.15 K, x2 = 0.4142 | – | 23.12
288.15 K, x2 = 0.5034 | – | 22.6
288.15 K, x2 = 0.517 | 759.5 | –
288.15 K, x2 = 0.6074 | – | 22.16
288.15 K, x2 = 0.6305 | 743.28 | –
288.15 K, x2 = 0.6639 | – | 21.9
288.15 K, x2 = 0.7114 | 731.48 | –
288.15 K, x2 = 0.8136 | 716.21 | –
288.15 K, x2 = 0.8325 | – | 21.24
288.15 K, x2 = 0.9061 | 702.2 | –
288.15 K, x2 = 0.9105 | – | 20.94
288.15 K, x2 = 0.9518 | 695.28 | –
288.15 K, x2 = 0.9561 | – | 20.87
293.15 K, x2 = 0.0514 | 818.71 | –
293.15 K, x2 = 0.0564 | – | 26.14
293.15 K, x2 = 0.1001 | 812.51 | –
293.15 K, x2 = 0.1057 | – | 25.54
293.15 K, x2 = 0.2015 | 799.33 | –
293.15 K, x2 = 0.2084 | – | 24.34
293.15 K, x2 = 0.3082 | 784.92 | –
293.15 K, x2 = 0.3112 | – | 23.38
293.15 K, x2 = 0.4054 | 771.41 | –
293.15 K, x2 = 0.4066 | – | 22.59
293.15 K, x2 = 0.5114 | – | 21.96
293.15 K, x2 = 0.517 | 755.65 | –
293.15 K, x2 = 0.6092 | – | 21.52
293.15 K, x2 = 0.6305 | 739.34 | –
293.15 K, x2 = 0.7114 | 727.47 | –
293.15 K, x2 = 0.7164 | – | 20.99
293.15 K, x2 = 0.8124 | – | 20.62
293.15 K, x2 = 0.8136 | 712.11 | –
293.15 K, x2 = 0.8965 | – | 20.48
293.15 K, x2 = 0.9061 | 698.04 | –
293.15 K, x2 = 0.9518 | 691.08 | –
293.15 K, x2 = 0.9573 | – | 20.26
298.15 K, x2 = 0.0541 | – | 25.64
298.15 K, x2 = 0.1083 | – | 25.03
298.15 K, x2 = 0.2004 | – | 23.91
298.15 K, x2 = 0.3137 | – | 22.82
298.15 K, x2 = 0.405 | – | 22.09
298.15 K, x2 = 0.5089 | – | 21.44
298.15 K, x2 = 0.6085 | – | 20.94
298.15 K, x2 = 0.7107 | – | 20.46
298.15 K, x2 = 0.8072 | – | 20.15
298.15 K, x2 = 0.9071 | – | 19.82
298.15 K, x2 = 0.9536 | – | 19.64
